Measured values reported in US10004702B2, “Linear guanidine derivatives, methods of preparation and uses thereof” (LEAD DISCOVERY SIENA S.R.L., priority 2014, dated 2018).
Converted amounts (≈) assume the structure as drawn. Like-named read-outs stand apart in the source and are kept apart here.

Assays:
[1] = tested on: Enterococcus faecalis ATCC 19433; assay: Bactericidal activity (MBC); assay type: cell-based; conditions: ATCC19433
Water solubility = assay type: physicochemical; conditions: thermodynamic from solid, room temperature, LC-UV-MS
Protocol: Solid compound 28 (1.01 mg) was added to 1 mL of water. The sample was shaken in a shaker bath at room temperature for 24 h. The suspension was filtered through a 0.45-μm nylon filter (Acrodisc), and the solubilised compound determined by LC-UV-MS assay. The determination was performed in triplicate. For the quantification was used an LC-UV-MS system consisted of a Varian apparatus (Varian Inc) including a vacuum solvent degassing unit, two pumps (212-LC), a Triple Quadrupole MSD (Mod. 320-LC) mass spectrometer with ES interface and Varian MS Workstation System Control Vers. 6.9 software. Chromatographic separation was obtained using a Pursuit C18 column (50×2.0 mm) (Varian) with 3 μm particle size and gradient elution: eluent A being CH3CN and eluent B consisting of an aqueous solution of formic acid (0.1%).
The flow rate was 0.4 ml/min and injection volume was 20 μL. The instrument operated in positive mode and parameters were: detector 1850 V, drying gas pressure 25.0 psi, desolvation temperature 300.0° C., nebulizing gas 45.0 psi, needle 5000 V and shield 600 V. Nitrogen was used as nebulizer and drying gas. Collision induced dissociation was performed using Argon as the collision gas at a pressure of 1.8 mTorr in the collision cell, the collision energy was set to 149 eV. UV lamp was set to 210 nm. […]

Human Serum Albumin = Human Serum Albumin (Homo sapiens, UniProt P02768); assay: Binding fluorimetric assay (tryptophan quenching); conditions: fixed concentration of HSA titrated with different amounts of compound
Protocol: The solutions were mixed and after allowing 30 minutes at room temperature to reach the equilibrium conditions, the spectra were recorded. […] The percentages obtained were plotted against the concentrations used and the KD values were calculated using GraphPad software (version 5.0).

[2] = tested on: Klebsiella pneumoniae 081R; assay: Antimicrobial susceptibility testing, MIC by microdilution broth method; assay type: cell-based; conditions: Klebsiella pneumoniae, 081R
Protocol: (§1) Bacterial strains were obtained from the ATCC or CCUG culture collections or present in the authors' collection of clinical isolates. Compounds were re-suspended in dimethyl sulfoxyde (DMSO) at a final concentration of 10 mg/ml and subsequently diluted in the culture medium. The minimum inhibitory concentrations (MICs) of the compounds of the invention were determined using the microdilution broth method using Mueller-Hinton broth as recommended by the Clinical Laboratory Standards Institute (CLSI [11]). Bacterial inoculum was 5×10^4 CFU/well. MICs were recorded after 18-24 hours incubation at 35-37° C.
The Antibacterial activity of compound 28 was also tested on a panel of Gram-negative and Gram-positive clinical isolates, showing various antimicrobial susceptibility profiles (Table 4). The class of drugs for which the isolate was resistant to is indicated in column 2 (PEN, penicillins; ES-CEPH, expanded-spectrum cephalosporins; CARB, carbapenems; AZT; aztreonam; AG, aminoglycosides; FQ, fluoroquinolones; SXT, trimethoprim/sulfamethoxazole; FOS, fosfomycin; GLY, glycopeptides; LNZ, linezolid; COL-R, colistin resistant; COL-S colistin sensitive; PDR, poly-drug resistant).

[3] = tested on: Bacillus subtilis ATCC 6633; assay: Bactericidal activity (MBC); assay type: cell-based; conditions: ATCC6633
[4] = tested on: Gram-positive and Gram-negative organisms; assay: Antimicrobial susceptibility testing, overall statements on the panel; assay type: cell-based; conditions: overall comparison over the tested strains
Protocol: as §1

[5] = tested on: Bacillus subtilis ATCC 6633; assay: Antimicrobial susceptibility testing, MIC by microdilution broth method; assay type: cell-based; conditions: ATCC6633, Mueller-Hinton broth, 18-24 hours at 35-37° C., read-out: MIC
Protocol: as §1

Burkholderia cepacia RII = assay: as above; assay type: cell-based; conditions: Mueller-Hinton broth, 18-24 hours at 35-37° C., read-out: MIC
Protocol: as §1

[6] = tested on: Chryseobacterium meningosepticum CCUG 4310; assay: Bactericidal activity (MBC); assay type: cell-based; conditions: Elizabethkingia meningoseptica, CCUG4310
[7] = tested on: Achromobacter xylosoxidans AX 22; assay: Bactericidal activity (MBC); assay type: cell-based; conditions: AX22
[8] = tested on: Klebsiella pneumoniae ATCC 13833; assay: Bactericidal activity (MBC); assay type: cell-based; conditions: ATCC13833
[9] = tested on: Klebsiella pneumoniae 081R; assay: Bactericidal activity (MBC); assay type: cell-based
[10] = tested on: Acinetobacter baumannii ATCC 17978; assay: Bactericidal activity (MBC); assay type: cell-based; conditions: ATCC17978
[11] = tested on: Stenotrophomonas maltophilia 634/08; assay: Bactericidal activity (MBC); assay type: cell-based
[12] = tested on: Enterobacter cloacae VA-417/02 (VIM-4); assay: Bactericidal activity (MBC); assay type: cell-based
[13] = Parallel Artificial Membrane Permeability Assay (PAMPA); assay type: in vitro ADME; conditions: pH 7.4, 5 h at room temperature, read-out: apparent permeability (Papp)
Protocol: Donor solution (0.5 mM) was prepared by diluting 1 mM dimethylsulfoxide (DMSO) compound stock solution using tris-HCl buffer (50 mM) at pH 7.4. Filters were coated with 5 μL of a 1% (w/v) dodecane solution of phosphatidylcholine. Donor solution (150 μL) was added to each well of the filter plate. To each well of the acceptor plate were added 300 μL of solution (50% DMSO in phosphate buffer). Compound 28 was tested in three different plates on different days. The sandwich was incubated for 5 h at room temperature under gentle shaking. After the incubation time, the plates were separated, and samples were taken from both receiver and donor sides and analyzed using LC with UV detection at 210 and 254 nm. LC analysis were performed with a Perkin-Elmer (series 200) instrument equipped with an UV detector (Perkin-Elmer […], UV/vis Detector). Chromatographic separation were conducted using a Polaris C18 column (150-4.6 mm, 5 μm particle size) at a flow rate of 0.8 mL min-1 with a mobile phase composed of 50% CH3CN/50% H2O-formic acid 0.1%. Permeability (Papp) was calculated according to equation 1, obtained from Sugano [12] and Wohnsland [13] equation with some modification to obtain values in cm/s. […]

[14] = tested on: Staphylococcus aureus ATCC 25923; assay: Bactericidal activity (MBC); assay type: cell-based; conditions: ATCC25923

Human Serum Albumin, sequence (P02768 25-609): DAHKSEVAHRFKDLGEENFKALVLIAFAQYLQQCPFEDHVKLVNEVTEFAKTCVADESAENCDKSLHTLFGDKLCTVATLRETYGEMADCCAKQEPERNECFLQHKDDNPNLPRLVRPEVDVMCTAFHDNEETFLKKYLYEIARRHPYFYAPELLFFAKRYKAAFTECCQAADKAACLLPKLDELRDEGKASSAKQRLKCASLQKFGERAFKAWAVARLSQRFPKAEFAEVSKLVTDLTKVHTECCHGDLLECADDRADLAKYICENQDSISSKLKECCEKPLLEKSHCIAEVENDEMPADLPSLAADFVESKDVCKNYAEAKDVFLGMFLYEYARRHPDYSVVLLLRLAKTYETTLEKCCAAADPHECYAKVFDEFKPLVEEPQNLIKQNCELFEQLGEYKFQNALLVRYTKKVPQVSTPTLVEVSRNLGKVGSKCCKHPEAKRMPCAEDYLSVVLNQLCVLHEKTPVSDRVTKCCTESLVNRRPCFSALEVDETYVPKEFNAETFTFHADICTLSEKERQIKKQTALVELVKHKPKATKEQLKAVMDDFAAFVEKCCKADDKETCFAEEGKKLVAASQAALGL

N=C(N)NCCCCCCCCN(CCCCCCCCNC(=N)NCC1CC1)C(=O)N(CCCCCCCCNC(=N)N)CCCCCCCCNC(=N)NCC1CC1 [Compound 28, 1,3-bis(8-(3-(cyclopropylmethyl)guanidino)octyl)-1,3-bis(8-guanidinooctyl)urea]
MBC [1]: < 0.125 µg/mL | solubility at 24 h (Water solubility): 292 µg/mL (≈ 345 µM) | intrinsic fluorescence decrease of HSA (Human Serum Albumin): scarce intrinsic fluorescence decrease | MIC ([2]; Table 4, resistance profile PDR, read-out: MIC): 4 µg/mL (≈ 4.73 µM) | MIC ([2]; Tables 2 and 3, read-out: MIC): 2 µg/mL (≈ 2.37 µM) | MBC [3]: 0.5 µg/mL (≈ 0.591 µM) | antimicrobial activity (in words) [4]: most active among the series | antimicrobial spectrum (in words) [4]: active against both Gram-positive and Gram-negative organisms | MIC [5]: 0.5 µg/mL (≈ 0.591 µM) | MIC (Burkholderia cepacia RII): 8 µg/mL (≈ 9.46 µM) | MBC [6]: 64 µg/mL (≈ 75.7 µM) | MBC [7]: 8 µg/mL (≈ 9.46 µM) | MBC [8]: 1 µg/mL (≈ 1.18 µM) | MBC [9]: 2 µg/mL (≈ 2.37 µM) | MBC [10]: 4 µg/mL (≈ 4.73 µM) | MBC [11]: 16 µg/mL (≈ 18.9 µM) | MBC [12]: 1 µg/mL (≈ 1.18 µM) | Papp at 5 h, 0.5 mM [13]: 1.6 ×10⁻⁶ cm/s | MBC [14]: 2 µg/mL (≈ 2.37 µM)
